For data set [1], the target named is T1, human recombinant HDAC1 (Homo sapiens, UniProt Q13547).
T1 construct: purchased BPS Bioscience
In words: Fluorogenic assay with human recombinant HDAC1, dark or illumination. In kind it is biochemical. The procedure: To study the inhibition of HDAC enzymes by the compounds, we used a fluorogenic assay with human recombinant HDAC1.[32] The enzyme was incubated with an acetylated substrate and each inhibitor for 1 h at room temperature, under either dark or light conditions. We opted for illumination throughout the incubation period to maintain the maximum proportion of cis under light conditions. […] Then, the deacetylated substrate generated a fluorescent coumarin after incubation of the mixture with trypsin at 37 °C for 20 min.
Stock solutions of the compounds were diluted to 1 mM in DMSO and then heated to 60 or 80 °C to obtain solutions with the maximum amount of the trans isomer (dark). […] The 1 mM solutions were then serially diluted with HDAC buffer to 10 times the desired concentration, maintaining DMSO at 10%.
In control wells without the compound, inhibitor, or enzyme, HDAC buffer was added instead. […] Then, 50 μL of the stop solution was added and the plates were incubated at 37 °C for 20 min in the dark. Fluorescence was measured at a λem of 460 nm and a λex of 380 nm. Enzyme activity is expressed as a percentage with respect to the nontreated cells, after subtracting the blank (well with no enzyme and no compound).

A short description of data set [2]: E/Z composition under light or temperature conditions by HPLC. In kind it is physicochemical.
Data set [3] can be described thus: UV–vis spectra and optimal isomerization wavelengths. In kind it is physicochemical. The protocol:
Ultraviolet–visible (UV–vis) spectra were recorded using a Tecan Spark 20M Multimode Microplate reader. Samples (200 μL of compound solution/well) were prepared at […] in DMSO. Samples were measured between 300 and 800 nm with 2 nm fixed intervals in 96-well transparent plates. Illumination at different wavelengths was performed for 2 min using 96-well LED array plates (LEDA Teleopto) placed below the samples. […] Potencies were measured using a Thorlabs PM100D power energy meter connected with a standard photodiode power sensor (S120VC).

The subject of another data set is HeLa cells. In words: HeLa cell viability, MTS assay, dark or preillumination. In kind it is cell-based. Particulars: for IC50: Homo sapiens, HeLa; for IC50(dark)/IC50(light): Table 5. The procedure: We then proceeded to evaluate the effect of the compounds in a viability assay against HeLa cells.
(§1) HeLa, MCF7, and HT29 cells were maintained in adherent cultures in DMEM supplemented with 10% FBS. KG1 cells were maintained in a suspension culture in IMDM supplemented with 20% FBS.
Stock solutions of the compounds were heated to 60 or 80 °C to obtain solutions with the maximum amount of the trans isomer (dark). […] The solutions were then serially diluted with DMEM to give 20 times the desired final concentration, maintaining DMSO at 10%.
Cells were seeded in 96-well black flat bottom plates with a clear bottom at a density of 5 × 10^3 cells/well (HeLa) or 1 × 10^4 cells/well (MCF7, HT29, and KG1), in a volume of 95 μL.
(§2) Viability of HeLa, MCF7, and […] cells was determined with a CellTiter 96 assay (Promega), according to the manufacturer’s instructions. Briefly, 20 μL of CellTiter 96 reagent was added to each well, the plates were incubated at 37 °C for 2 h, and the absorbance at 490 nm was recorded. Viability is expressed as a percentage with respect to the nontreated cells.

For data set [4] the following is noted: cited from earlier work.
In data set [5] the target is T1, human recombinant HDAC1. In words: Fluorogenic assay with human recombinant HDAC1, dark or illumination. In kind it is biochemical. Particulars: enzyme incubated 6 h with or without preillumination, activity assessed every hour.
The nature of data set [6]: UV–vis spectra and optimal isomerization wavelengths. In kind it is physicochemical. Particulars: 25–50 μM in DMSO, using CoolLed at 217 mW/cm^2 instead of Teleopto plates.
A further data set relates to MCF7 cells. In words: MCF7 cell viability, MTS assay, 50 μM. In kind it is cell-based. Particulars: 48 h; for effect on viability when preilluminated: preilluminated (380 or 550 nm). The procedure:
(§3) HDACis have been proposed as a potential therapeutic strategy against cancer stem cells (CSCs).[39],[40] We selected three cell lines that have a strong CSC phenotype (HT29,[41],[42] MCF7[43]−[45] and KG1[46]) and tested the best compounds at 50 μM under dark and illumination conditions.
as §1
(§4) Stock solutions of the compounds were heated to 60 or 80 °C to obtain solutions with the maximum amount of the trans isomer (dark). For the “light” solutions, the stock solutions were illuminated with 96-well LED array plates for 3 min at the maximum potency. The solutions were then serially diluted with DMEM to give 20 times the desired final concentration, maintaining DMSO at 10%.
(§5) Cells were seeded in 96-well black flat bottom plates with a clear bottom at a density of 5 × 10^3 cells/well (HeLa) or 1 × 10^4 cells/well (MCF7, HT29, and KG1), in a volume of 95 μL. After 24 h, 5 μL of compound solutions (20×) were added. Cells were incubated for 48 h.
as §2

A further data set has as its system KG1 cells. In words: KG1 cell viability, CellTiterGlo assay, 50 μM. In kind it is cell-based. Particulars: 48 h; for effect on viability when preilluminated: preilluminated (380 or 550 nm). The protocol:
as §3, §1, §4, §5
Viability of KG1 cells was determined with a CellTiter-Glo (Promega) assay, according to the manufacturer’s instructions. Briefly, 100 μL of CellTiter-Glo reagent was added to each well, the plates were kept at room temperature for 10 min, and the luminescence was recorded. Viability is expressed as a percentage with respect to the nontreated cells.

The subject of another data set is HT29 cells. In words: HT29 cell viability, MTS assay, 50 μM. In kind it is cell-based. Particulars: 48 h; for effect on viability when preilluminated: preilluminated (380 or 550 nm). The protocol:
as §3, §1, §4, §5, §2

Where [7] appears, read: UV–vis at 25–50 μM in DMSO, Teleopto plates (Table 1).
[8] abbreviates: UV–vis spectra at 25–50 μM in DMSO (Table 1).
Where [9] appears, read: dark, 48 h, read-out: IC50 dark (concentration that reduces cell viability by half).
Where [10] appears, read: continuous illumination 550 nm (Table 4), read-out: IC50 light.
The mark [11] stands for this setting: dark (Table 4), read-out: IC50 dark.
[12] abbreviates: HPLC at isosbestic point (290–336 nm), 100 μM in DMSO after illumination with λcis (Table 3).
Setting [13] is: HPLC at isosbestic point (290–336 nm), 100 μM in DMSO after illumination with λtrans (Table 3).
Setting [14] is: UV–vis spectra at 25–100 μM in DMSO (Table 3).
[15] abbreviates: preillumination 550 nm, 48 h, read-out: IC50 light (concentration that reduces cell viability by half).

Read-outs that look alike come from different tables or passages of the source.

T1 sequence (Q13547 whole entry): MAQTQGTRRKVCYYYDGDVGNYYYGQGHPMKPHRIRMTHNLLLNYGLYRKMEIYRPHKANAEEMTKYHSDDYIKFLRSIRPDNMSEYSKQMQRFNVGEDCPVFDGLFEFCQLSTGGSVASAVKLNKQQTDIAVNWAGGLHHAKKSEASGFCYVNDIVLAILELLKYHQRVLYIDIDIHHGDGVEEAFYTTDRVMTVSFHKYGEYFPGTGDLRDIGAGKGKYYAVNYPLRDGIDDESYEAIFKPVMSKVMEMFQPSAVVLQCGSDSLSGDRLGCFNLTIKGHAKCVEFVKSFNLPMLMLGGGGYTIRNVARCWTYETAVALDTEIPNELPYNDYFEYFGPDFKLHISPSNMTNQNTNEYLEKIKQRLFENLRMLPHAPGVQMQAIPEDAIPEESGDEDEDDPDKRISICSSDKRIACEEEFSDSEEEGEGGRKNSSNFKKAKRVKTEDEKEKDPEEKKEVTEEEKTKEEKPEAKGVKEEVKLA

In the case of `COc1ccc(/N=N/c2ccc(/C=C/C(=O)NO)cc2)cc1` [Compound 1, reference compound], the “IC50(dark)/IC50(light)” value is 18 at human recombinant HDAC1 [1] (dark vs 365 or 380 nm (Table 2), fold) and “≈1” with HeLa cells. Besides, the IC50 at human recombinant HDAC1 [1] (dark, 1 h at room temperature (Table 2), read-out: IC50 dark) was 0.96 µM; at human recombinant HDAC1 [1] (illumination 365 or 380 nm, 1 h at room temperature (Table 2), read-out: IC50 light), 0.052 µM; with HeLa cells (setting [9]) it was around 12 µM; with HeLa cells (preillumination 380 nm, 48 h, read-out: IC50 light (concentration that reduces cell viability by half)), around 12 µM; in the data set with HeLa cells (supplementary CSV, read-out: HeLa MTS IC50 dark), 12 µM; with HeLa cells (supplementary CSV, read-out: HeLa MTS IC50 light), 12 µM. Also, the “% cis at λcis” value in data set [2] (HPLC at isosbestic point (310–338 nm), 100 μM in DMSO after illumination with λcis (Table 1)) was 78%. For the same molecule, the “% trans at λtrans” value in data set [2] (HPLC at isosbestic point (310–338 nm), 100 μM in DMSO after illumination with λtrans (Table 1)) was 85%. In data set [3] (setting [7]), the “λcis (optimal wavelength trans to cis)” value is 380 nm. Further, the “λtrans (optimal wavelength cis to trans)” value in [3] (setting [7]) is on record as 550 nm. Also, the λmax trans in data set [3] (setting [8]) came to 378 nm. Also, the wavelength of isomerization in [4] is 365 nm. Moreover, the “t1/2 (relaxation)” value in data set [4] (room temperature in buffer) is 4.2 h. Besides, the “difference in activity between dark and illuminated conditions over incubation time” value on human recombinant HDAC1 [5] is reported as “maintained over time”.
With `CN(C)c1ccc(/N=N/c2ccc(C(=O)Nc3ccccc3N)cc2)cc1` [Compound 2], in data set [6], the λcis is listed as 460^5 nm and the λtrans is reported as 580^5 nm. The same molecule displayed a λmax trans in data set [3] (setting [8]) of 450 nm. Further, the “activity under dark and illumination conditions” value with HeLa cells (in words) was “inactive”. Moreover, in data set [4], the activation wavelength is 470 nm. In [4] (room temperature in PBS), the half-life was 60 μs.
With `COc1cc(F)c(/N=N/c2c(F)cc(/C=C/C(=O)Nc3ccccc3N)cc2Cl)c(Cl)c1` [Compound 32c, (E)-N-(2-Aminophenyl)-3-(3-chloro-4-((E)-(2-chloro-6-fluoro-4-methoxyphenyl)diazenyl)-5-fluorophenyl)acrylamide], the “activity at the highest tested concentration in the dark” value at human recombinant HDAC1 [1] (10 μM, dark) is listed as “no or little activity”. Besides, the “IC50(dark)/IC50(light)” value on human recombinant HDAC1 [1] (Table 4) is above 2.6; in the data set on HeLa cells it was above 2.7. Further, the “IC50 under illumination, in words” value at human recombinant HDAC1 [1] (continuous illumination) is listed as “low micromolar range”. The IC50 was 3.9 µM on human recombinant HDAC1 [1] (setting [10]), above 10 µM on human recombinant HDAC1 [1] (setting [11]) and 37 µM in the data set on HeLa cells (setting [15]). Further, the “% cis at λcis” value in [2] (setting [12]) was 68%. For the same molecule, in [2] (setting [13]), the “% trans at λtrans” value was 85%. Besides, the “effect on viability in the dark” value in the data set with MCF7 cells, in the data set on KG1 cells and in the data set on HT29 cells was “little or no effect” in each case. Moreover, the “effect on viability when preilluminated” value in the data set on MCF7 cells, in the data set on KG1 cells and in the data set on HT29 cells was “significantly reduced the viability” each time. In addition, the λcis in data set [3] (setting [14]) is 550 nm. In data set [3] (setting [14]), this molecule displayed a λmax cis of 442 nm. Also, the λmax trans in [3] (setting [14]) is recorded as 358 nm. In [3] (setting [14]), this molecule showed a λtrans of 455 nm. The “cell death under dark vs light conditions” value in the data set on HeLa cells (in words) is listed as “inducing cell death only under light conditions”.
Consider `COc1cc(F)c(/N=N/c2c(F)cc(C(=O)Nc3ccccc3N)cc2F)c(F)c1` [Compound 38a, (E)-N-(2-Aminophenyl)-4-((2,6-difluoro-4-methoxyphenyl)diazenyl)-3,5-difluorobenzamide], for which the “IC50(dark)/IC50(light)” value at human recombinant HDAC1 [1] (Table 4) was “≈5.9”; with HeLa cells, above 3.4. The IC50 on human recombinant HDAC1 [1] (setting [10]) is 1.7 µM; on human recombinant HDAC1 [1] (setting [11]), around 10 µM; at human recombinant HDAC1 [1] (supplementary CSV, read-out: HDAC1 IC50 dark), 10 µM; with HeLa cells (setting [9]), above 100 µM; in the data set with HeLa cells (setting [15]) it was 29 µM. Besides, the “% cis at λcis” value in data set [2] (setting [12]) came to 84%. Moreover, the “% trans at λtrans” value in [2] (setting [13]) is 67%. Further, the “effect on viability in the dark” value in the data set on MCF7 cells, in the data set with KG1 cells and in the data set with HT29 cells was “little or no effect” each time. Moreover, the “effect on viability when preilluminated” value in the data set with MCF7 cells, with KG1 cells and with HT29 cells was “significantly reduced the viability” throughout. In data set [3] (setting [14]), the λcis came out at 550 nm. The λmax cis in data set [3] (setting [14]) is listed as 428 nm. In data set [3] (setting [14]), the λmax trans was 348 nm. In data set [3] (setting [14]), the λtrans was found to be 455 nm. In the data set on HeLa cells (in words), the “cell death under dark vs light conditions” value is listed as “inducing cell death only under light conditions”.

Values taken from paper PMC9949698, “Visible-Light-Controlled Histone Deacetylase Inhibitors for Targeted Cancer Therapy” (Journal of Medicinal Chemistry, 2023).
